Assay results reported in BindingDB's records for doi:10.1021/jm960274q (Basf, 1996).

Target: Endothelin receptor type B (Cavia porcellus)
Assay: Binding affinity towards Endothelin B receptor by measuring its ability to displace [125I]ET-3 from guinea pig cerebellum

Row | SMILES | Ki [nM]
1 | COc1cc(OC)nc(OC(C(=O)O)C(OC)(c2ccc(C)cc2)c2ccc(C)cc2)n1 (centres undefined) [2-(4,6-Dimethoxy-pyrimidin-2-yloxy)-3-methoxy-3,3-di-p-tolyl-propionic acid] | 1000
2 | COc1cc(OC)nc(OC(C(=O)O)C(OC)(c2cccc(C)c2)c2cccc(C)c2)n1 (centres undefined) [2-(4,6-Dimethoxy-pyrimidin-2-yloxy)-3-methoxy-3,3-di-m-tolyl-propionic acid] | 1300
3 | CCc1cc(C)nc(OC(C(=O)O)C(OC)(c2ccccc2)c2ccccc2)n1 (centres undefined) [2-(4-Ethyl-6-methyl-pyrimidin-2-yloxy)-3-methoxy-3,3-diphenyl-propionic acid] | 160
4 | COc1cc(OC)nc(OC(C(=O)O)C(Oc2ccccc2)(c2ccccc2)c2ccccc2)n1 (centres undefined) [2-(4,6-Dimethoxy-pyrimidin-2-yloxy)-3-phenoxy-3,3-diphenyl-propionic acid] | 1500

Second part, the compound after the results:

Row | Ki [nM] | SMILES
5 | 1300 | COc1cc(OC)nc(OC(C(=O)O)C(OC)(c2ccc(Cl)cc2)c2ccc(Cl)cc2)n1 (centres undefined) [3,3-Bis-(4-chloro-phenyl)-2-(4,6-dimethoxy-pyrimidin-2-yloxy)-3-methoxy-propionic acid]
6 | 3500 | COc1cc(OC)nc(OC(C(=O)O)C(O)(c2ccccc2)c2ccccc2)n1 (centres undefined) [2-(4,6-Dimethoxy-pyrimidin-2-yloxy)-3-hydroxy-3,3-diphenyl-propionic acid]
7 | 1800 | COc1cc(OC)nc(OC(C(=O)O)C(OC)(c2cccc(F)c2)c2cccc(F)c2)n1 (centres undefined) [2-(4,6-Dimethoxy-pyrimidin-2-yloxy)-3,3-bis-(3-fluoro-phenyl)-3-methoxy-propionic acid]
8 | 2500 | CCOc1cc(OCC)nc(OC(C(=O)O)C(OC)(c2ccccc2)c2ccccc2)n1 (centres undefined) [2-(4,6-Diethoxy-pyrimidin-2-yloxy)-3-methoxy-3,3-diphenyl-propionic acid]
9 | 6000 | COc1cc(OC)nc(OC(C(=O)O)C(OC)(c2ccccc2F)c2ccccc2F)n1 (centres undefined) [2-(4,6-Dimethoxy-pyrimidin-2-yloxy)-3,3-bis-(2-fluoro-phenyl)-3-methoxy-propionic acid]
